Reference: patent US20210196720A1 (UROVANT SCIENCES GMBH, priority 2018, published 2021)
Values joined by “and” are separate entries in the source; they are usually repeats but may differ in a detail not shown here. Equal values may be shown once. Read-outs that look alike come from different tables or passages of the source.

How the values were obtained:
[1] = Single rising oral dose Phase 1 PK, healthy adults (young males unless stated); format: in vivo, human; conditions: for AUC(0-inf) / Cmax / AUC(0-t) / half-life: human, plasma, oral; for AUC(0-t): read-out: AUC0-24
Protocol: The steady state AUC geometric mean accumulation ratios were ˜2 in young male subjects and ˜2.8 in elderly subjects (male and female).
All subjects were healthy adults. […] Systemic exposures were greater than dose proportional up to 600 mg.
Although exposures were similar in middle-aged males when compared to young males, plasma concentrations were higher in elderly compared to middle-aged and young subjects. […] Furthermore, the steady state AUC geometric mean accumulation ratios were ˜2 in young males and ˜2.8 in the elderly.

Phase 1 safety data = format: in vivo; conditions: Phase 1, single 2-600 mg, multiple 25-400 mg
Excerpt: Safety data from 16 Phase 1 studies, which include 15 completed Phase 1 studies and 1 study that was terminated early (this study was terminated for reasons unrelated to efficacy or safety) was collected.

[2] = Effect of food on oral absorption; format: in vivo, human; conditions: for Cmax / Tmax / AUC(0-t) / AUC(0-inf): human, plasma, oral; for AUC(0-t): read-out: AUC0-24
[3] = Drug interaction: effect of conmed on vibegron PK; format: in vivo, human; conditions: for half-life / AUC / Cmax: human, oral; for half-life: read-out: GM t1/2 (converted); for AUC / Cmax: plasma
Excerpt: However, these interactions are not expected to be clinically significant.

[4] = Human plasma protein binding; format: in vitro ADME
[5] = human, in vivo
Excerpt: The accumulation potential of circulating metabolites in plasma was not estimated due to insufficient data from later time points to enable estimation of half-life.

[6] = Phase 2b OAB study, adverse events
Excerpt: A placebo group was included in the main study, and a group that received tolterodine monotherapy was included in the main study and in the extension.

[7] = both sexes, 50 mg, single 50 mg, elderly male and female
[8] = male, 10 mg, single 10 mg, Japanese
[9] = male, 50 mg, single 50 mg, Japanese, fasted
[10] = male, 50 mg, single 50 mg, fasted
[11] = male, 100 mg, single 100 mg, Japanese
[12] = male, 200 mg, single 200 mg, Japanese
[13] = male, 300 mg, single 300 mg, Japanese
[14] = 50 mg, high-fat meal, non-Japanese young males
[15] = 50 mg, standard Japanese breakfast, Japanese young males
[16] = 150 mg multiple dose, middle-aged and elderly females, Day 1
[17] = female, 150 mg, 150 mg multiple dose day 14, middle-aged females, fed
[18] = male, 50 mg, single 50 mg, Japanese young males, fed
[19] = male, 50 mg, single 50 mg, non-Japanese young males, fed
[20] = 100 mg QD + tolterodine ER 4 mg QD
[21] = 100 mg single + diltiazem ER 240 mg QD
[22] = 100 mg single + ketoconazole 200 mg every 12 hours
[23] = 100 mg, 100 mg QD alone (tolterodine study)
[24] = 100 mg, 100 mg single, alone (diltiazem study)
[25] = 100 mg, 100 mg single, alone (ketoconazole study)
[26] = 150 mg QD + tolterodine ER 4 mg QD
[27] = 150 mg, 150 mg QD alone (tolterodine study)
[28] = with multiple doses of diltiazem

Compound: O=C(Nc1ccc(C[C@@H]2CC[C@H]([C@H](O)c3ccccc3)N2)cc1)[C@@H]1CCc2nccc(=O)n21 [Vibegron, (6S)-N-[4-[[(2S,5R)-5-[(R)-hydroxy(phenyl)methyl]pyrrolidin-2-yl]methyl]phenyl]-4-oxo-7,8-dihydro-6H-pyrrolo[1,2-a]pyrimidine-6-carboxamide]
- AUC(0-inf) [1, 7]: 951 ± 300 ng·h/mL
- Cmax [1, 7]: 50.2 ± 23.6 ng/mL
- AUC(0-t) [1, 7]: 314 ± 119 ng·h/mL
- half-life ([1]; both sexes, 50 mg, single 50 mg, elderly male and female, read-out: t1/2 (converted)): 92 h
- Cmax ([1]; male, 2 mg, single 2 mg): 0.28 ± 0.02 ng/mL
- AUC(0-t) ([1]; male, 2 mg, single 2 mg): 0.8 ± 0.33 ng·h/mL
- Cmax ([1]; male, 5 mg, single 5 mg): 0.79 ± 0.3 ng/mL
- AUC(0-t) ([1]; male, 5 mg, single 5 mg): 8.31 ± 4.8 ng·h/mL
- AUC(0-inf) ([1]; male, 10 mg, single 10 mg): 70.7 ± 34.9 ng·h/mL
- Cmax ([1]; male, 10 mg, single 10 mg): 4.76 ± 4.58 ng/mL
- AUC(0-inf) [1, 8]: 98.7 ± 27.3 ng·h/mL
- Cmax [1, 8]: 3.34 ± 1.97 ng/mL
- AUC(0-t) [1, 8]: 31 ± 9.33 ng·h/mL
- half-life ([1]; male, 10 mg, single 10 mg, Japanese, read-out: t1/2 (converted)): 57.6 ± 39 h
- AUC(0-t) ([1]; male, 10 mg, single 10 mg): 30 ± 12.6 ng·h/mL
- half-life ([1]; male, 10 mg, single 10 mg, read-out: t1/2 (converted)): 43.2 ± 13 h
- AUC(0-inf) ([1]; male, 20 mg, single 20 mg): 121 ± 48.9 ng·h/mL
- Cmax ([1]; male, 20 mg, single 20 mg): 5.25 ± 4.25 ng/mL
- AUC(0-t) ([1]; male, 20 mg, single 20 mg): 40 ± 21.1 ng·h/mL
- half-life ([1]; male, 20 mg, single 20 mg, read-out: t1/2 (converted)): 64.2 ± 12.6 h
- AUC(0-inf) [1, 9]: 885 ± 241 ng·h/mL
- Cmax [1, 9]: 62.2 ± 20.4 ng/mL
- AUC(0-t) [1, 9]: 385 ± 136 ng·h/mL
- half-life ([1]; male, 50 mg, single 50 mg, Japanese, read-out: t1/2 (converted)): 64.4 ± 8.7 h
- AUC(0-inf) [1, 10]: 551 ± 262 ng·h/mL
- Cmax [1, 10]: 31.7 ± 35 ng/mL
- AUC(0-t) [1, 10]: 219 ± 123 ng·h/mL
- half-life ([1]; male, 50 mg, single 50 mg, read-out: t1/2 (converted)): 52 h
- AUC(0-inf) ([1]; male, 100 mg, single 100 mg): 1890 ± 698 ng·h/mL
- Cmax ([1]; male, 100 mg, single 100 mg): 142 ± 108 ng/mL
- AUC(0-inf) [1, 11]: 1770 ± 418 ng·h/mL
- Cmax [1, 11]: 190 ± 123 ng/mL
- AUC(0-t) [1, 11]: 920 ± 300 ng·h/mL
- half-life ([1]; male, 100 mg, single 100 mg, Japanese, read-out: t1/2 (converted)): 57.6 ± 12 h
- AUC(0-t) ([1]; male, 100 mg, single 100 mg): 845 ± 401 ng·h/mL
- half-life ([1]; male, 100 mg, single 100 mg, read-out: t1/2 (converted)): 72.8 ± 10.8 h
- AUC(0-inf) ([1]; male, 150 mg, single 150 mg): 2270 ± 911 ng·h/mL
- Cmax ([1]; male, 150 mg, single 150 mg): 195 ± 185 ng/mL
- AUC(0-t) ([1]; male, 150 mg, single 150 mg): 1050 ± 551 ng·h/mL
- half-life ([1]; male, 150 mg, single 150 mg, read-out: t1/2 (converted)): 60.5 ± 10.5 h
- AUC(0-inf) ([1]; male, 200 mg, single 200 mg): 3630 ± 1110 ng·h/mL
- Cmax ([1]; male, 200 mg, single 200 mg): 274 ± 138 ng/mL
- AUC(0-inf) [1, 12]: 5200 ± 791 ng·h/mL
- Cmax [1, 12]: 516 ± 200 ng/mL
- AUC(0-t) [1, 12]: 3090 ± 569 ng·h/mL
- half-life ([1]; male, 200 mg, single 200 mg, Japanese, read-out: t1/2 (converted)): 58.4 ± 9 h
- AUC(0-t) ([1]; male, 200 mg, single 200 mg): 1740 ± 748 ng·h/mL
- half-life ([1]; male, 200 mg, single 200 mg, read-out: t1/2 (converted)): 75.3 ± 9.1 h
- AUC(0-inf) ([1]; male, 300 mg, single 300 mg): 7380 ± 1410 ng·h/mL
- Cmax ([1]; male, 300 mg, single 300 mg): 618 ± 231 ng/mL
- AUC(0-inf) [1, 13]: 6270 ± 1570 ng·h/mL
- Cmax [1, 13]: 733 ± 210 ng/mL
- AUC(0-t) [1, 13]: 4050 ± 1240 ng·h/mL
- half-life ([1]; male, 300 mg, single 300 mg, Japanese, read-out: t1/2 (converted)): 59.7 ± 9.2 h
- AUC(0-t) ([1]; male, 300 mg, single 300 mg): 4430 ± 996 ng·h/mL
- half-life ([1]; male, 300 mg, single 300 mg, read-out: t1/2 (converted)): 63.4 ± 3 h
- AUC(0-inf) ([1]; male, 450 mg, single 450 mg): 9160 ± 1850 ng·h/mL
- Cmax ([1]; male, 450 mg, single 450 mg): 645 ± 165 ng/mL
- AUC(0-t) ([1]; male, 450 mg, single 450 mg): 5510 ± 1440 ng·h/mL
- half-life ([1]; male, 450 mg, single 450 mg, read-out: t1/2 (converted)): 60 ± 9.4 h
- AUC(0-inf) ([1]; male, 600 mg, single 600 mg): 15500 ± 3450 ng·h/mL
- Cmax ([1]; male, 600 mg, single 600 mg): 1330 ± 529 ng/mL
- AUC(0-t) ([1]; male, 600 mg, single 600 mg): 10900 ± 2770 ng·h/mL
- half-life ([1]; male, 600 mg, single 600 mg, read-out: t1/2 (converted)): 60.5 ± 5.2 h
- half-life ([1]; male, 10 to 600 mg, healthy young males, read-out: terminal elimination t1/2): 43 to 75 h
- half-life ([1]; male, Japanese subjects, read-out: harmonic mean apparent terminal t1/2): 58 to 71 h
- AUC0-inf higher in elderly than young males ([1]; single 50 mg): ~70%
- Cmax higher in elderly than young males ([1]; single 50 mg): 60%
- t1/2 ([1]; single 50 mg): 52 h and 52.0 ± 7.8 h
- t1/2 ([1]; single 50 mg, elderly male and female): 92 h and 92.1 ± 15.9 h
- exposure increase, Japanese vs non-Japanese young males ([1]; single dose): < 2 fold
- tolerability (Phase 1 safety data): generally well tolerated
- AUC0-inf reduction, fed vs fasted [2, 14]: 46%
- Cmax reduction, fed vs fasted [2, 14]: 67%
- delay in Tmax, fed vs fasted [2, 14]: ~1 h
- AUC0-inf reduction, fed vs fasted [2, 15]: 37%
- Cmax reduction, fed vs fasted [2, 15]: 52%
- Ctrough ([2]; 150 mg multiple dose day 14, middle-aged females, fed): 65.3 ± 7.87 ng/mL
- AUC0-24 reduction with food vs fasted ([2]; 150 mg multiple dose, females, Day 14): ~20%
- AUC0-24 with food compared to fasted [2, 16]: ~42%
- Cmax with food compared to fasted [2, 16]: 59%
- Cmax [2, 17]: 185 ± 32.3 ng/mL
- Tmax [2, 17]: 6 h
- AUC(0-t) [2, 17]: 2540 ± 334 ng·h/mL
- AUC(0-inf) [2, 18]: 605 ± 222 ng·h/mL
- Cmax [2, 18]: 36.2 ± 33.3 ng/mL
- AUC(0-t) [2, 18]: 226 ± 112 ng·h/mL
- AUC(0-inf) [2, 19]: 316 ± 127 ng·h/mL
- Cmax [2, 19]: 7.6 ± 2.27 ng/mL
- Tmax [2, 19]: 3 h
- AUC(0-t) [2, 19]: 90.7 ± 22.9 ng·h/mL
- half-life ([3]; in vivo, 100 mg, vibegron alone): 75 h
- half-life ([3]; in vivo, with diltiazem): 75.4 h
- half-life ([3]; in vivo, with ketoconazole): 80.2 h
- AUC [3, 20]: 1790 ng·h/mL
- Cmax [3, 20]: 163 ng/mL
- AUC [3, 21]: 2170 ng·h/mL
- Cmax [3, 21]: 167 ng/mL
- AUC [3, 22]: 2850 ng·h/mL
- Cmax [3, 22]: 251 ng/mL
- AUC [3, 23]: 1660 ng·h/mL
- Cmax [3, 23]: 158 ng/mL
- AUC [3, 24]: 1330 ng·h/mL
- Cmax [3, 24]: 99.8 ng/mL
- AUC [3, 25]: 1370 ng·h/mL
- Cmax [3, 25]: 113 ng/mL
- AUC [3, 26]: 3100 ng·h/mL
- Cmax [3, 26]: 304 ng/mL
- AUC [3, 27]: 2780 ng·h/mL
- Cmax [3, 27]: 269 ng/mL
- effect of tolterodine ER 4 mg on pharmacokinetics of vibegron ([3]; in vivo): no effect
- higher exposure ([3]; with a potent CYP3A/P-gp inhibitor): ~2 fold
- GM AUC0-inf increase [3, 28]: 63%
- GM Cmax increase [3, 28]: 68%
- bound to human plasma proteins [4]: approximately 49%
- unbound in human plasma [4]: 49%
- dose recovered in feces [5]: approximately 59%
- dose recovered in urine [5]: ~20%
- total recovery of radioactivity in excreta [5]: 79%
- share of plasma radioactivity ([5]; 2 hr): ~78%
- share of plasma radioactivity ([5]; 4 hr): ~73%
- tolerability ([6]; Phase 2b, 3 to 100 mg): generally well tolerated
- ≥1 AE, subjects ([6]; first 12 weeks, dose group by column): 107 n
- frequency of injuries ([6]; in vivo): 0.9%
